For this assay, the target named is DDE (fibrin-derived polypeptide) (Homo sapiens, UniProt P02671+P02675+P02679). Nature of the assay: Direct binding fluorescence polarization (FP) assay using 5-carboxyfluorescein labeled peptides. Particulars: 20 nM CF5-labeled peptide, serial dilutions of DDE, anisotropy read at 485 nm; read-out: KD (μM) Direct Binding (n = 2). The method, then: Assay of Fibrin Binding Peptides by Direct Binding Fluorescence Polarization (FP) Procedure using 5-Carboxyfluoresein Labeled Peptides
Protocol • 1. Prepare 1 mL of 40 nM solution of 5-carboxyfluorescein-labeled peptide in HEPES dilution buffer (HDB) with 0.01% Tween. • HDB (10 mM HEPES, 150 mM […], 2 mM CaCl2) • 2. Dilute the 40 nM solution to obtain 1 ml of a 20 nM solution of the test 5-carboxyfluorescein-labeled peptide. • 3. Prepare a solution of DDE at a concentration that will be approximately 5-10 fold greater than the expected KD. For the described assay an 8 μM concentration of DDE was prepared. • 4. Mix equal volumes of the DDE solution with the 40 nM peptide solution. • 5. Prepare serial dilutions of DDE in a solution consisting of the binding buffer with 0.01% Tween20 and 20 nM of the 5-carboxyfluorescein-labeled peptide. • 6. Make dilutions as shown in the following table in a Labsystems 384-well microplate and mix by repeated aspiration and dispensing of the solution into the wells. • 7. Centrifuge the plate at 2000 RPM for 5 minutes to remove air pockets in the wells. • 8. Read in Tecan Polarion Plate Reader at 485 nm to obtain the anisotropy value.
The anisotropy (in mP—millipolarization units) vs the logarithm of the concentration (micromoles/liter) of the receptor concentration is graphed. The dissociation constant is obtained at the midpoint of the curve whose extrema are Afree and Abound where Afree is the anisotropy of the free peptide and Abound is the anisotropy of the fully bound peptide. The theory, methods of operation and mathematical analysis is described in, for example, the following reference: Fluorescence Polarization Technical Resource Guide Technical Resource Guide 4th Edn. Invitrogen Corporation•501 Charmany Drive•Madison, Wis. 53719 USA. Particularly, the mathematical analysis of the data and obtaining binding constants is described in Chapter 8: Analysis of FP Binding Data pp 8-2-8-7.
In general terms: In fluorescence polarisation assays a small probe gives low polarisation when free and higher when bound to something large.

Bridge positions count the residues as written; N and C are the ends. Square brackets hold non-standard residues; d marks the D form. Peptide text beside a SMILES is read from it. * marks the point of attachment. 5FAM = O=C1OC2(c3ccc(O)cc3Oc3cc(O)ccc32)c2ccc(C(=O)*)cc21; Cha = N[C@@H](CC1CCCCC1)C(=O)O; AEEA = NCCOCCOCC(=O)O

The results in this text go back to patent US8466107B2, “Fibrin-binding peptides and conjugates thereof” (Bracco Imaging SpA, priority 2006, dated 2013).

Sequence of DDE (fibrin-derived polypeptide) (P02671 124-216): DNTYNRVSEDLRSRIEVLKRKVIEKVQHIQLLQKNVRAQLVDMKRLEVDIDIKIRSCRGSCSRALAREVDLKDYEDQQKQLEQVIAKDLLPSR
Sequence of DDE (fibrin-derived polypeptide) (P02675 164-491): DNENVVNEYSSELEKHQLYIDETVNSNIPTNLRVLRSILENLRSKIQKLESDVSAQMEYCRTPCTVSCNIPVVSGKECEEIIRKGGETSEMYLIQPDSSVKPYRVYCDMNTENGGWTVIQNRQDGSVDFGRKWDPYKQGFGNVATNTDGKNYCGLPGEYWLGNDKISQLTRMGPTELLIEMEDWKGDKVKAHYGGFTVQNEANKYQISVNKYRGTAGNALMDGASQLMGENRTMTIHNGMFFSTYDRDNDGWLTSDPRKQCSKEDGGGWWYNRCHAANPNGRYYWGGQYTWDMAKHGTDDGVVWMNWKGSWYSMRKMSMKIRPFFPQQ
Sequence of DDE (fibrin-derived polypeptide) (P02679 114-432): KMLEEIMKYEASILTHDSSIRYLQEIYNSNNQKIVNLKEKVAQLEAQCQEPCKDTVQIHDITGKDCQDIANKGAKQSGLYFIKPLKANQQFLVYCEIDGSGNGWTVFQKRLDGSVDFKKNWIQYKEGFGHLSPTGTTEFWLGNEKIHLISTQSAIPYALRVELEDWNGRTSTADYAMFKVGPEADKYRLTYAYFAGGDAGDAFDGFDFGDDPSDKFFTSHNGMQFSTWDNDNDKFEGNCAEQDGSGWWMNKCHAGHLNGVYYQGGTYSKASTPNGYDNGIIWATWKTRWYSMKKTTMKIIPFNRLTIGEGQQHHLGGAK
Sequence of DDE (fibrin-derived polypeptide) (P02671 36-97): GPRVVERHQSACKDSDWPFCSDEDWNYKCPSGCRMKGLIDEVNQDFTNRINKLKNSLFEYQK
Sequence of DDE (fibrin-derived polypeptide) (P02675 45-152): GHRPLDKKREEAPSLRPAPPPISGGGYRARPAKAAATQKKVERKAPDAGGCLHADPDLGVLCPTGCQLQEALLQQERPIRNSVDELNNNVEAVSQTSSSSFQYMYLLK
Sequence of DDE (fibrin-derived polypeptide) (P02679 27-88): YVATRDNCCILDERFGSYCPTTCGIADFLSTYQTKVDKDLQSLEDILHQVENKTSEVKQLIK

Turning to `CC(=O)NCC(=O)NCC(=O)N[C@@H](CCCNC(=N)N)C(=O)NCC(=O)N[C@@H](Cc1c[nH]c2ccccc12)C(=O)N[C@@H](CCC(N)=O)C(=O)N1CCC[C@H]1C(=O)N[C@H]1CSSC[C@@H](C(=O)N[C@@H](Cc2c[nH]c3ccccc23)C(=O)N[C@@H](CC(=O)O)C(=O)N2CCC[C@H]2C(=O)NCC(=O)NCC(=O)NCC(=O)N[C@@H](CCCCNC(=O)c2ccc3c(c2)C(=O)OC32c3ccc(O)cc3Oc3cc(O)ccc32)C(N)=O)NC(=O)[C@H](Cc2ccccc2)NC(=O)[C@H]([C@@H](C)O)NC(=O)[C@H](Cc2c[nH]c3ccccc23)NC(=O)[C@H](CO)NC(=O)[C@H](CCC(=O)O)NC(=O)[C@H](C)NC(=O)[C@@H]2CCCN2C1=O` [Seq035-CF5] (Ac-GGRGWQPCPAESWTFCWDPGGGK(5FAM)-NH2; disulfide 8-16), the Kd came to 0.52 µM.
In the case of `C[C@@H]1NC(=O)[C@@H]2CCCN2C(=O)[C@@H](NC(=O)[C@@H]2CCCN2C(=O)[C@H](CCC(N)=O)NC(=O)[C@H](Cc2c[nH]c3ccccc23)NC(=O)CN)CSSC[C@@H](C(=O)N[C@@H](Cc2c[nH]c3ccccc23)C(=O)N[C@@H](CC(=O)O)C(=O)N2CCC[C@H]2C(=O)NCC(=O)NCC(=O)NCC(=O)N[C@@H](CCCCNC(=O)c2ccc3c(c2)C(=O)OC32c3ccc(O)cc3Oc3cc(O)ccc32)C(N)=O)NC(=O)[C@H](Cc2ccccc2)NC(=O)[C@H]([C@@H](C)O)NC(=O)[C@H](Cc2c[nH]c3ccccc23)NC(=O)[C@H](CO)NC(=O)[C@H](CCC(=O)O)NC1=O` [Seq038-CF5] (H-GWQPCPAESWTFCWDPGGGK(5FAM)-NH2; disulfide 5-13; N-terminus assumed), the Kd is 0.24 µM.
With `CC(=O)NCC(=O)N[C@@H](Cc1c[nH]c2ccccc12)C(=O)N[C@@H](CCC(N)=O)C(=O)N1CCC[C@H]1C(=O)N[C@H]1CSSC[C@@H](C(=O)N[C@@H](Cc2c[nH]c3ccccc23)C(=O)N[C@@H](CC(=O)O)C(=O)N2CCC[C@H]2C(=O)NCC(=O)NCC(=O)NCC(=O)N[C@@H](CCCCNC(=O)c2ccc3c(c2)C(=O)OC32c3ccc(O)cc3Oc3cc(O)ccc32)C(N)=O)NC(=O)[C@H](Cc2ccccc2)NC(=O)[C@H]([C@@H](C)O)NC(=O)[C@H](Cc2c[nH]c3ccccc23)NC(=O)[C@H](CO)NC(=O)[C@H](CCC(=O)O)NC(=O)[C@H](C)NC(=O)[C@@H]2CCCN2C1=O` [Seq039-CF5] (Ac-GWQPCPAESWTFCWDPGGGK(5FAM)-NH2; disulfide 5-13) the figure was 0.24 µM; with `CC(=O)N[C@@H](CO)C(=O)NCC(=O)N[C@@H](CO)C(=O)NCC(=O)N[C@@H](CO)C(=O)NCC(=O)N[C@@H](CO)C(=O)NCC(=O)N[C@@H](Cc1c[nH]c2ccccc12)C(=O)N[C@@H](CCC(N)=O)C(=O)N1CCC[C@H]1C(=O)N[C@H]1CSSC[C@@H](C(=O)N[C@@H](Cc2c[nH]c3ccccc23)C(=O)N[C@@H](CC(=O)O)C(=O)N2CCC[C@H]2C(=O)NCC(=O)NCC(=O)NCC(=O)N[C@@H](CCCCNC(=O)c2ccc3c(c2)C(=O)OC32c3ccc(O)cc3Oc3cc(O)ccc32)C(N)=O)NC(=O)[C@H](Cc2ccccc2)NC(=O)[C@H]([C@@H](C)O)NC(=O)[C@H](Cc2c[nH]c3ccccc23)NC(=O)[C@H](CO)NC(=O)[C@H](CCC(=O)O)NC(=O)[C@H](C)NC(=O)[C@@H]2CCCN2C1=O` [Seq040-CF5] (Ac-SGSGSGSGWQPCPAESWTFCWDPGGGK(5FAM)-NH2; disulfide 12-20), 0.53 µM; with `CC(=O)N[C@@H](Cc1c[nH]c2ccccc12)C(=O)N[C@@H](CCC(N)=O)C(=O)N1CCC[C@H]1C(=O)N[C@H]1CSSC[C@@H](C(=O)N[C@@H](Cc2c[nH]c3ccccc23)C(=O)N[C@@H](CC(=O)O)C(=O)N2CCC[C@H]2C(=O)NCC(=O)NCC(=O)NCC(=O)N[C@@H](CCCCNC(=O)c2ccc3c(c2)C(=O)OC32c3ccc(O)cc3Oc3cc(O)ccc32)C(N)=O)NC(=O)[C@H](CC2CCCCC2)NC(=O)[C@H]([C@@H](C)O)NC(=O)[C@H](Cc2c[nH]c3ccccc23)NC(=O)[C@H](CO)NC(=O)[C@H](CCC(=O)O)NC(=O)[C@H](C)NC(=O)[C@@H]2CCCN2C1=O` [Seq042-CF5, Ac-WQPC*PAESWT-Cha-C*WDPGGGK(CF5)-NH2] (Ac-WQPCPAESWT[Cha]CWDPGGGK(5FAM)-NH2; disulfide 4-12), 0.17 µM.
For the molecule `CC(=O)N[C@@H](CO)C(=O)NCC(=O)N[C@@H](CO)C(=O)NCC(=O)NCCOCCOCC(=O)N[C@@H](Cc1c[nH]c2ccccc12)C(=O)N[C@@H](CCC(N)=O)C(=O)N1CCC[C@H]1C(=O)N[C@H]1CSSC[C@@H](C(=O)N[C@@H](Cc2c[nH]c3ccccc23)C(=O)N[C@@H](CC(=O)O)C(=O)N2CCC[C@H]2C(=O)NCC(=O)NCC(=O)NCC(=O)N[C@@H](CCCCNC(=O)c2ccc3c(c2)C(=O)OC32c3ccc(O)cc3Oc3cc(O)ccc32)C(N)=O)NC(=O)[C@H](Cc2ccccc2)NC(=O)[C@H]([C@@H](C)O)NC(=O)[C@H](Cc2c[nH]c3ccccc23)NC(=O)[C@H](CO)NC(=O)[C@H](CCC(=O)O)NC(=O)[C@H](C)NC(=O)[C@@H]2CCCN2C1=O` [Seq045-CF5] (Ac-SGSG[AEEA]WQPCPAESWTFCWDPGGGK(5FAM)-NH2; disulfide 9-17), the Kd was determined as 0.57 µM.
To `CC(=O)N[C@@H](CCCNC(=N)N)C(=O)N[C@@H](CCCNC(=N)N)C(=O)NCC(=O)NCC(=O)N[C@@H](Cc1c[nH]c2ccccc12)C(=O)N[C@@H](CCC(N)=O)C(=O)N1CCC[C@H]1C(=O)N[C@H]1CSSC[C@@H](C(=O)N[C@@H](Cc2c[nH]c3ccccc23)C(=O)N[C@@H](CC(=O)O)C(=O)N2CCC[C@H]2C(=O)NCC(=O)NCC(=O)NCC(=O)N[C@@H](CCCCNC(=O)c2ccc3c(c2)C(=O)OC32c3ccc(O)cc3Oc3cc(O)ccc32)C(N)=O)NC(=O)[C@H](Cc2ccccc2)NC(=O)[C@H]([C@@H](C)O)NC(=O)[C@H](Cc2c[nH]c3ccccc23)NC(=O)[C@H](CO)NC(=O)[C@H](CCC(=O)O)NC(=O)[C@H](C)NC(=O)[C@@H]2CCCN2C1=O` [Seq046-CF5] (Ac-RRGGWQPCPAESWTFCWDPGGGK(5FAM)-NH2; disulfide 8-16) belongs 0.22 µM; to `CC(=O)N[C@@H](CCCNC(=N)N)C(=O)N[C@@H](Cc1c[nH]c2ccccc12)C(=O)N[C@@H](CCC(N)=O)C(=O)N1CCC[C@H]1C(=O)N[C@H]1CSSC[C@@H](C(=O)N[C@@H](Cc2c[nH]c3ccccc23)C(=O)N[C@@H](CC(=O)O)C(=O)N2CCC[C@H]2C(=O)NCC(=O)NCC(=O)NCC(=O)N[C@@H](CCCCNC(=O)c2ccc3c(c2)C(=O)OC32c3ccc(O)cc3Oc3cc(O)ccc32)C(N)=O)NC(=O)[C@H](Cc2ccccc2)NC(=O)[C@H]([C@@H](C)O)NC(=O)[C@H](Cc2c[nH]c3ccccc23)NC(=O)[C@H](CO)NC(=O)[C@H](CCC(=O)O)NC(=O)[C@H](Cc2c[nH]c3ccccc23)NC(=O)[C@@H]2CCCN2C1=O` [Seq048-CF5] (Ac-RWQPCPWESWTFCWDPGGGK(5FAM)-NH2; disulfide 5-13), 0.11 µM; to `CC(=O)N[C@@H](CCCNC(=N)N)C(=O)N[C@@H](Cc1c[nH]c2ccccc12)C(=O)N[C@@H](CCC(N)=O)C(=O)N1CCC[C@H]1C(=O)N[C@H]1CSSC[C@@H](C(=O)N[C@@H](Cc2c[nH]c3ccccc23)C(=O)N[C@@H](CC(=O)O)C(=O)N2CCC[C@H]2C(=O)NCC(=O)NCC(=O)NCC(=O)N[C@@H](CCCCNC(=O)c2ccc3c(c2)C(=O)OC32c3ccc(O)cc3Oc3cc(O)ccc32)C(N)=O)NC(=O)[C@H](Cc2ccccc2)NC(=O)[C@H]([C@@H](C)O)NC(=O)[C@H](Cc2c[nH]c3ccccc23)NC(=O)[C@H](CO)NC(=O)[C@H](CCC(=O)O)NC(=O)[C@H](C)NC(=O)[C@@H]2CCCN2C1=O` [Seq049-CF5] (Ac-RWQPCPAESWTFCWDPGGGK(5FAM)-NH2; disulfide 5-13), 0.21 µM.
To `CC(=O)N[C@@H](CCCNC(=N)N)C(=O)N[C@@H](Cc1c[nH]c2ccccc12)C(=O)N[C@@H](CCC(N)=O)C(=O)N1CCC[C@H]1C(=O)N[C@H]1CSSC[C@@H](C(=O)N[C@@H](Cc2c[nH]c3ccccc23)C(=O)N[C@@H](CC(=O)O)C(=O)N2CCC[C@H]2C(=O)NCC(=O)NCC(=O)NCC(=O)N[C@@H](CCCCNC(=O)c2ccc3c(c2)C(=O)OC32c3ccc(O)cc3Oc3cc(O)ccc32)C(N)=O)NC(=O)[C@H](CC2CCCCC2)NC(=O)[C@H]([C@@H](C)O)NC(=O)[C@H](Cc2c[nH]c3ccccc23)NC(=O)[C@H](CO)NC(=O)[C@H](CCC(=O)O)NC(=O)[C@H](C)NC(=O)[C@@H]2CCCN2C1=O` [Seq050-CF5, Ac-RWQPC*PAESWT-Cha-C*WDPGGGK(CF5)-NH2] (Ac-RWQPCPAESWT[Cha]CWDPGGGK(5FAM)-NH2; disulfide 5-13) belongs 0.08 µM.

For orientation: Kd means the concentration at which binding is half-saturated.
